Several values for one entry are separate records, joined by “and”; a condition that tells them apart may be missing. Equal values may be shown once. Toxic doses and inconclusive results are not listed. How the source made its calls: active means survival T/C of 150% or more; inactive means T/C below 125% in these data.
Tested on: P388 leukemia ip, CD2F1 mice, survival T/C
Assay: NCI In Vivo Anticancer Drug Screen. Data for tumor model P388 Leukemia (intraperitoneal) in CD2F1 (CDF1) mice
Conditions: endpoint: median survival time, higher = longer survival
Outline: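 Mice carrying the transplanted tumor received test compound or vehicle. Survival was recorded in each group, and the value is the treated-group measurement divided by that of the vehicle-treated control group.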

[1] = dose: 25.0 mg/kg/injection, schedule: Q01DX005 (ip), vehicle: saline with Tween-80
[2] = dose: 50.0 mg/kg/injection, schedule: Q01DX005 (ip), vehicle: saline with Tween-80
[3] = dose: 100.0 mg/kg/injection, schedule: Q01DX005 (ip), vehicle: saline with Tween-80
[4] = dose: 200.0 mg/kg/injection, schedule: Q01DX005 (ip), vehicle: saline with Tween-80
[5] = dose: 60.0 mg/kg/injection, schedule: Q01DX005 (ip), vehicle: saline with Tween-80
[6] = dose: 120.0 mg/kg/injection, schedule: Q01DX005 (ip), vehicle: saline with Tween-80
[7] = dose: 240.0 mg/kg/injection, schedule: Q01DX005 (ip), vehicle: saline with Tween-80
[8] = dose: 50.0 mg/kg/injection, schedule: Q01DX009 (ip), vehicle: saline with Tween-80
[9] = dose: 100.0 mg/kg/injection, schedule: Q01DX009 (ip), vehicle: saline with Tween-80

Measured: T/C

CCN(CC)CCNc1ccc(C)c2sc3ccccc3c(=O)c12
active: dose: 54.0 mg/kg/injection, schedule: Q01DX005 (ip), vehicle: saline 152 % of control | dose: 62.5 mg/kg/injection, schedule: Q01DX005 (ip), vehicle: saline 181 % of control | dose: 75.0 mg/kg/injection, schedule: Q01DX005 (ip), vehicle: saline 156 % of control | dose: 75.0 mg/kg/injection, schedule: Q01DX005 (ip), vehicle: water 151 % of control | dose: 80.0 mg/kg/injection, schedule: Q01DX005 (ip), vehicle: water 156 % of control | dose: 90.0 mg/kg/injection, schedule: Q01DX005 (ip), vehicle: saline 154 % of control | dose: 125.0 mg/kg/injection, schedule: Q01DX005 (ip), vehicle: saline 166 % of control and 168 % of control | dose: 180.0 mg/kg/injection, schedule: Q04DX003 (ip), vehicle: saline 168 % of control
inactive: dose: 6.25 mg/kg/injection, schedule: Q01DX005 (ip), vehicle: distilled water + Tween-80 100 % of control and 106 % of control | dose: 6.25 mg/kg/injection, schedule: Q01DX009 (ip), vehicle: water 100 % of control | dose: 7.8 mg/kg/injection, schedule: Q01DX005 (ip), vehicle: saline 109 % of control | dose: 12.5 mg/kg/injection, schedule: Q01DX005 (ip), vehicle: distilled water + Tween-80 101 % of control and 104 % of control and 107 % of control | dose: 12.5 mg/kg/injection, schedule: Q01DX009 (ip), vehicle: water 99 % of control | dose: 13.0 mg/kg/injection, schedule: Q01DX005 (ip), vehicle: water 120 % of control | dose: 15.6 mg/kg/injection, schedule: Q01DX005 (ip), vehicle: saline 113 % of control | dose: 16.2 mg/kg/injection, schedule: Q01DX005 (ip), vehicle: saline 107 % of control and 108 % of control | dose: 16.2 mg/kg/injection, schedule: Q01DX005 (ip), vehicle: water 107 % of control | dose: 19.4 mg/kg/injection, schedule: Q01DX005 (ip), vehicle: saline 102 % of control | dose: 19.4 mg/kg/injection, schedule: Q01DX005 (ip), vehicle: water 109 % of control | dose: 19.44 mg/kg/injection, schedule: Q01DX005 (ip), vehicle: saline 114 % of control | dose: 21.6 mg/kg/injection, schedule: Q01DX005 (ip), vehicle: water 117 % of control | [1] 114 % of control | dose: 25.0 mg/kg/injection, schedule: Q01DX009 (ip), vehicle: water 100 % of control | dose: 27.0 mg/kg/injection, schedule: Q01DX005 (ip), vehicle: saline 114 % of control | dose: 27.0 mg/kg/injection, schedule: Q01DX005 (ip), vehicle: water 118 % of control | dose: 32.4 mg/kg/injection, schedule: Q01DX005 (ip), vehicle: saline 111 % of control | dose: 32.4 mg/kg/injection, schedule: Q01DX005 (ip), vehicle: water 119 % of control | dose: 38.9 mg/kg/injection, schedule: Q04DX003 (ip), vehicle: saline 119 % of control | dose: 45.0 mg/kg/injection, schedule: Q01DX005 (ip), vehicle: saline 124 % of control | dose: 50.0 mg/kg/injection, schedule: Q01DX009 (ip), vehicle: water 115 % of control | dose: 54.0 mg/kg/injection, schedule: Q01DX005 (ip), vehicle: water 123 % of control

CCOc1ccc2nc3cc(I)ccc3c(N)c2c1
inactive: dose: 7.5 mg/kg/injection, schedule: Q01DX005 (ip), vehicle: saline with Tween-80 102 % of control | dose: 15.0 mg/kg/injection, schedule: Q01DX005 (ip), vehicle: saline with Tween-80 100 % of control | dose: 30.0 mg/kg/injection, schedule: Q01DX005 (ip), vehicle: saline with Tween-80 112 % of control

Cn1cnc2c(=O)[nH]c(N)nc21
inactive: [2] 102 % of control | [3] 107 % of control | [4] 107 % of control

Cc1sc([S-])n[n+]1-c1ccccc1
inactive: dose: 6.25 mg/kg/injection, schedule: Q01DX009 (ip), vehicle: distilled water + Tween-80 93 % of control | dose: 12.5 mg/kg/injection, schedule: Q01DX009 (ip), vehicle: distilled water + Tween-80 90 % of control | dose: 25.0 mg/kg/injection, schedule: Q01DX009 (ip), vehicle: distilled water + Tween-80 96 % of control | dose: 50.0 mg/kg/injection, schedule: Q01DX009 (ip), vehicle: distilled water + Tween-80 97 % of control | dose: 100.0 mg/kg/injection, schedule: Q01DX009 (ip), vehicle: distilled water + Tween-80 110 % of control | dose: 200.0 mg/kg/injection, schedule: Q01DX009 (ip), vehicle: distilled water + Tween-80 105 % of control

C1CCC2(CC1)SCC1COCN12 (configuration not stated)
inactive: dose: 100.0 mg/kg/injection, schedule: Q04DX003 (ip), vehicle: saline with Tween-80 103 % of control | dose: 200.0 mg/kg/injection, schedule: Q04DX003 (ip), vehicle: saline with Tween-80 97 % of control | dose: 400.0 mg/kg/injection, schedule: Q04DX003 (ip), vehicle: saline with Tween-80 103 % of control

O=c1c2ccccc2n2nc3ccccc3c2n1-c1ccccc1
inactive: dose: 93.25 mg/kg/injection, schedule: Q04DX002 (ip), vehicle: Klucel (hydroxypropylcellulose) (HPC) 104 % of control | dose: 186.5 mg/kg/injection, schedule: Q04DX002 (ip), vehicle: Klucel (hydroxypropylcellulose) (HPC) 98 % of control | dose: 373.0 mg/kg/injection, schedule: Q04DX002 (ip), vehicle: Klucel (hydroxypropylcellulose) (HPC) 95 % of control

CCCn1c(C)nc2c([N+](=O)[O-])cc(C(F)(F)F)cc21
inactive: [5] 98 % of control | [6] 97 % of control | [7] 99 % of control

Cc1cc(=O)n2[nH]c(-c3ccco3)cc2n1
inactive: [5] 104 % of control | [6] 104 % of control | [7] 105 % of control

CC(C)N1CSC(=S)N(Cc2ccccc2)C1
inactive: dose: 25.0 mg/kg/injection, schedule: Q01DX009 (ip), vehicle: saline with Tween-80 107 % of control | [8] 97 % of control and 98 % of control | [9] 93 % of control and 98 % of control | dose: 200.0 mg/kg/injection, schedule: Q01DX009 (ip), vehicle: saline with Tween-80 89 % of control

NC(=O)c1[nH]cnc1O
inactive: dose: 12.5 mg/kg/injection, schedule: Q01DX005 (ip), vehicle: saline with Tween-80 114 % of control | [1] 107 % of control | [2] 108 % of control and 123 % of control | [3] 114 % of control and 123 % of control | dose: 100.0 mg/kg/injection, schedule: Q04DX002 (ip), vehicle: saline with Tween-80 100 % of control | [4] 123 % of control | dose: 200.0 mg/kg/injection, schedule: Q04DX002 (ip), vehicle: saline with Tween-80 110 % of control

Cn1cc(Cl)n(C)c(=O)c1=O
inactive: dose: 6.25 mg/kg/injection, schedule: Q01DX001 (ip), vehicle: saline with Tween-80 104 % of control | dose: 12.5 mg/kg/injection, schedule: Q01DX001 (ip), vehicle: saline with Tween-80 104 % of control | dose: 25.0 mg/kg/injection, schedule: Q01DX001 (ip), vehicle: saline with Tween-80 118 % of control

COc1ccc2nc3cc(Cl)ccc3c(NCCOCCO)c2c1
inactive: [8] 101 % of control | [9] 109 % of control

Oc1ccc2ccccc2c1/C=N\Sc1ccccc1
inactive: [8] 98 % of control | [9] 98 % of control

Cc1cccc(=O)n1C
inactive: dose: 50.0 mg/kg/injection, schedule: Q01DX009 (ip), vehicle: saline 102 % of control | dose: 100.0 mg/kg/injection, schedule: Q01DX009 (ip), vehicle: saline 102 % of control | dose: 200.0 mg/kg/injection, schedule: Q01DX009 (ip), vehicle: saline 100 % of control

NCCNCC[OH2+].NCCNCC[OH2+].O=[N+]([O-])[O-].[Cu+2]
inactive: dose: 3.12 mg/kg/injection, schedule: Q01DX009 (ip), vehicle: Klucel (hydroxypropylcellulose) (HPC) 98 % of control | dose: 6.25 mg/kg/injection, schedule: Q01DX009 (ip), vehicle: Klucel (hydroxypropylcellulose) (HPC) 111 % of control | dose: 6.25 mg/kg/injection, schedule: Q04DX003 (ip), vehicle: saline 97 % of control | dose: 12.5 mg/kg/injection, schedule: Q01DX009 (ip), vehicle: Klucel (hydroxypropylcellulose) (HPC) 93 % of control | dose: 12.5 mg/kg/injection, schedule: Q04DX003 (ip), vehicle: saline 100 % of control | dose: 25.0 mg/kg/injection, schedule: Q04DX003 (ip), vehicle: saline 86 % of control

Source: PubChem BioAssay AID330 (DTP/NCI, 2004)
